For one assay, the system named is MIA PaCa. Description: cells. Particulars: Homo sapiens, MIA PaCa-2, 72 h, read-out: MIA PaCa.
In another assay the test system is BxPC3. Description: cells. Conditions: Homo sapiens, BXPC-3, 72 h, read-out: BxPC3.
Another assay relates to 67nR. Description: cells. Particulars: 72 h, read-out: 67nR.
A further assay deals with 4T1. Nature of the assay: cells. Particulars: Mus musculus, 4T1, 72 h, read-out: 4T1.
The subject of another assay is MDA-MB 231. Description: cells. Conditions: Homo sapiens, MDA-MB-231, 72 h, read-out: MDA-MB 231.
For assay [1], the target named is Human recombinant Methionine Aminopeptidase 2 (MetAp2) (Homo sapiens, UniProt P50579). Nature of the assay: fluorometric H-Met-AMC hydrolysis. The class given is biochemical.
Human recombinant Methionine Aminopeptidase 2 (MetAp2), sequence (P50579 2-478): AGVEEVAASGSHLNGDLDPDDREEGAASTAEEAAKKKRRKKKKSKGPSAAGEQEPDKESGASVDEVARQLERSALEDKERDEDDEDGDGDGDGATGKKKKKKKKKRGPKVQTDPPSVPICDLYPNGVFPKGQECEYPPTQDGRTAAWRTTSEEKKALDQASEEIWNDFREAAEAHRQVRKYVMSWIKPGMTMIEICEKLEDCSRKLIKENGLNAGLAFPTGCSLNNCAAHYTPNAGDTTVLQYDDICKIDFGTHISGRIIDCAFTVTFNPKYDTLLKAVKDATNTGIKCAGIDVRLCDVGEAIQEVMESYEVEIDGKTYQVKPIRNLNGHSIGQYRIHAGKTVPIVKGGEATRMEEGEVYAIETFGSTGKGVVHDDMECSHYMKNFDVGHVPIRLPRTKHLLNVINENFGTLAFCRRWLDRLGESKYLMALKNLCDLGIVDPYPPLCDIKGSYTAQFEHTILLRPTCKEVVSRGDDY

For `O=[N+]([O-])c1ccc(O)c2ncccc12` [compound 1, 5-nitroquinolin-8-ol], the IC50 amounted to 11.5 ± 2.06 µM in the assay on MIA PaCa; 13.9 ± 1.77 µM with BxPC3; 16.8 ± 2.74 µM with 67nR; 4.67 ± 1.13 µM in the assay with 4T1; 20.4 ± 1.22 µM with MDA-MB 231.
Consider `CC(C)(C)[Si](C)(C)Oc1ccc([N+](=O)[O-])c2cccnc12` [compound 2], for which the IC50 in the assay with MIA PaCa worked out at 10.4 ± 2.26 µM; in assay [1] it was 4.3 µM; in the assay on BxPC3, 15.2 ± 2.01 µM; in the assay with 67nR, 23.3 ± 1.5 µM; with 4T1 it was 4.92 ± 1.63 µM; with MDA-MB 231 it was 19.2 ± 1.52 µM.
Consider `CC(C)[Si](Oc1ccc([N+](=O)[O-])c2cccnc12)(C(C)C)C(C)C` [compound 3], for which the IC50 with MIA PaCa was 9.71 ± 2.96 µM; in assay [1], 2.86 µM; in the assay on BxPC3, 16.7 ± 1.73 µM; in the assay with 67nR, 14.4 ± 2.97 µM; in the assay with 4T1 it was 2.76 ± 0.21 µM; in the assay on MDA-MB 231, 17.3 ± 1.07 µM.
In the case of `CC(C)(C)[Si](Oc1ccc([N+](=O)[O-])c2cccnc12)(c1ccccc1)c1ccccc1` [compound 4], the IC50 in the assay with MIA PaCa worked out at 10.4 ± 1.56 µM; in assay [1], 3.42 µM; in the assay with BxPC3, 12.8 ± 1.09 µM; in the assay on 67nR it was 15.6 ± 2.21 µM; with 4T1, 4.6 ± 2.41 µM; with MDA-MB 231, 15.9 ± 1.47 µM.
Turning to `CS(=O)(=O)Oc1ccc([N+](=O)[O-])c2cccnc12` [compound 5], the IC50 in the assay with MIA PaCa stood at 13.8 ± 0.85 µM; in the assay on BxPC3 it was 25.6 ± 3.35 µM; with 67nR, 25.2 ± 1.96 µM; in the assay on 4T1, 4.22 ± 0.32 µM; in the assay on MDA-MB 231, 13.1 ± 1.96 µM.
For `O=[N+]([O-])c1ccc(OS(=O)(=O)C(F)(F)F)c2ncccc12` [compound 6], the IC50 in the assay with MIA PaCa was 9.63 ± 2.35 µM; in assay [1], more than 100 µM; in the assay on BxPC3, 11.7 ± 1.64 µM; in the assay on 67nR, 10.3 ± 1.45 µM; with 4T1, 4.13 ± 1.17 µM; in the assay with MDA-MB 231, 13.8 ± 2.98 µM.
`C[Si](C)(C)CCOCOc1ccc([N+](=O)[O-])c2cccnc12` [compound 7]: the IC50 turned out to be 28.2 ± 3.35 µM in the assay on MIA PaCa; 21.1 µM in assay [1]; 18.1 ± 2.86 µM in the assay on BxPC3; 2.43 ± 1.05 µM with 4T1; 34.7 ± 2.17 µM in the assay with MDA-MB 231.
With `O=[N+]([O-])c1ccc(OCOCc2ccccc2)c2ncccc12` [compound 9], the IC50 in the assay on MIA PaCa is 60.2 ± 1.52 µM; in assay [1] it was 92.1 µM; with BxPC3, 44.1 ± 2.09 µM; in the assay with 4T1, 25.4 ± 3.1 µM; with MDA-MB 231, more than 100 µM.

Source of the values: article doi:10.1101/2025.10.20.683482v1 (biorxiv, 2025).
